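Values below derive from 48-hour exposures of cells grown in 96-well plates, with endpoints linearly interpolated between the two concentrations bracketing the appropriate inhibition level. TGI is the concentration that stops growth completely.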
Assays:
Experiment in all cases: inhibition of tumour cell growth, NCI panel, 48 h
A498 renal = system: A498 renal
A549 NSCLC = system: A549 NSCLC
ACHN renal = system: ACHN renal
CCRF-CEM leukemia = system: CCRF-CEM leukemia
COLO 205 colon = system: COLO 205 colon
DU-145 prostate = system: DU-145 prostate
HCC-2998 colon = system: HCC-2998 colon
HCT-116 colon = system: HCT-116 colon
HCT-15 colon = system: HCT-15 colon
HOP-92 NSCLC = system: HOP-92 NSCLC
HS 578T breast = system: HS 578T breast
HT29 colon = system: HT29 colon
K-562 leukemia = system: K-562 leukemia
KM12 colon = system: KM12 colon
LOX IMVI melanoma = system: LOX IMVI melanoma
MCF7 breast = system: MCF7 breast
MDA-MB-231 breast = system: MDA-MB-231 breast
MDA-MB-435 = system: MDA-MB-435
MDA-N = system: MDA-N
MOLT-4 leukemia = system: MOLT-4 leukemia
NCI-H226 lung = system: NCI-H226 lung
NCI-H23 lung = system: NCI-H23 lung
NCI-H460 lung = system: NCI-H460 lung
NCI-H522 lung = system: NCI-H522 lung
NCI/ADR-RES ovarian = system: NCI/ADR-RES ovarian
OVCAR-8 ovarian = system: OVCAR-8 ovarian
PC-3 prostate = system: PC-3 prostate
RXF 393 renal = system: RXF 393 renal
SF-268 CNS = system: SF-268 CNS
SF-295 CNS = system: SF-295 CNS
SK-MEL-28 melanoma = system: SK-MEL-28 melanoma
SK-MEL-5 melanoma = system: SK-MEL-5 melanoma
SK-OV-3 ovarian = system: SK-OV-3 ovarian
SN12C renal = system: SN12C renal
SNB-19 CNS = system: SNB-19 CNS
SNB-75 CNS = system: SNB-75 CNS
SR leukemia = system: SR leukemia
SW-620 colon = system: SW-620 colon
TK-10 renal = system: TK-10 renal
U251 CNS = system: U251 CNS
UACC-257 melanoma = system: UACC-257 melanoma
UO-31 renal = system: UO-31 renal
786-0 renal = system: 786-0 renal
EKVX NSCLC = system: EKVX NSCLC
HL-60(TB) leukemia = system: HL-60(TB) leukemia
HOP-62 NSCLC = system: HOP-62 NSCLC
IGROV1 ovarian = system: IGROV1 ovarian
M14 melanoma = system: M14 melanoma
OVCAR-4 ovarian = system: OVCAR-4 ovarian
OVCAR-5 ovarian = system: OVCAR-5 ovarian
RPMI-8226 leukemia = system: RPMI-8226 leukemia
SF-539 CNS = system: SF-539 CNS
T-47D breast = system: T-47D breast
BT-549 breast = system: BT-549 breast
CAKI-1 renal = system: CAKI-1 renal
MALME-3M melanoma = system: MALME-3M melanoma
OVCAR-3 ovarian = system: OVCAR-3 ovarian
SK-MEL-2 melanoma = system: SK-MEL-2 melanoma
UACC-62 melanoma = system: UACC-62 melanoma

SMILES: CCOC(=O)C1CSCCSC1
- TGI (A498 renal): > 100 µM
- TGI (A549 NSCLC): > 100 µM
- TGI (ACHN renal): > 100 µM
- TGI (CCRF-CEM leukemia): > 100 µM
- TGI (COLO 205 colon): > 100 µM
- TGI (DU-145 prostate): > 100 µM
- TGI (HCC-2998 colon): > 100 µM
- TGI (HCT-116 colon): > 100 µM
- TGI (HCT-15 colon): > 100 µM
- TGI (HOP-92 NSCLC): > 100 µM
- TGI (HS 578T breast): > 100 µM
- TGI (HT29 colon): > 100 µM
- TGI (K-562 leukemia): > 100 µM
- TGI (KM12 colon): > 100 µM
- TGI (LOX IMVI melanoma): > 100 µM
- TGI (MCF7 breast): > 100 µM
- TGI (MDA-MB-231 breast): > 100 µM
- TGI (MDA-MB-435): > 100 µM
- TGI (MDA-N): > 100 µM
- TGI (MOLT-4 leukemia): > 100 µM
- TGI (NCI-H226 lung): > 100 µM
- TGI (NCI-H23 lung): > 100 µM
- TGI (NCI-H460 lung): 57.6 µM
- TGI (NCI-H522 lung): > 100 µM
- TGI (NCI/ADR-RES ovarian): > 100 µM
- TGI (OVCAR-8 ovarian): > 100 µM
- TGI (PC-3 prostate): > 100 µM
- TGI (RXF 393 renal): > 100 µM
- TGI (SF-268 CNS): > 100 µM
- TGI (SF-295 CNS): > 100 µM
- TGI (SK-MEL-28 melanoma): > 100 µM
- TGI (SK-MEL-5 melanoma): > 100 µM
- TGI (SK-OV-3 ovarian): > 100 µM
- TGI (SN12C renal): > 100 µM
- TGI (SNB-19 CNS): > 100 µM
- TGI (SNB-75 CNS): > 100 µM
- TGI (SR leukemia): > 100 µM
- TGI (SW-620 colon): > 100 µM
- TGI (TK-10 renal): > 100 µM
- TGI (U251 CNS): > 100 µM
- TGI (UACC-257 melanoma): > 100 µM
- TGI (UO-31 renal): > 100 µM

SMILES: Nc1ccc(Sc2nnc(N)s2)cc1
- TGI (786-0 renal): > 100 µM
- TGI (A549 NSCLC): > 100 µM
- TGI (ACHN renal): > 100 µM
- TGI (CCRF-CEM leukemia): > 100 µM
- TGI (COLO 205 colon): > 100 µM
- TGI (EKVX NSCLC): > 100 µM
- TGI (HCC-2998 colon): > 100 µM
- TGI (HCT-116 colon): > 100 µM
- TGI (HCT-15 colon): > 100 µM
- TGI (HL-60(TB) leukemia): > 100 µM
- TGI (HOP-62 NSCLC): > 100 µM
- TGI (HS 578T breast): > 100 µM
- TGI (IGROV1 ovarian): > 100 µM
- TGI (K-562 leukemia): > 100 µM
- TGI (KM12 colon): > 100 µM
- TGI (M14 melanoma): > 100 µM
- TGI (MCF7 breast): > 100 µM
- TGI (MDA-MB-231 breast): > 100 µM
- TGI (MDA-MB-435): > 100 µM
- TGI (MDA-N): > 100 µM
- TGI (MOLT-4 leukemia): > 100 µM
- TGI (NCI-H460 lung): > 100 µM
- TGI (NCI-H522 lung): > 100 µM
- TGI (NCI/ADR-RES ovarian): > 100 µM
- TGI (OVCAR-4 ovarian): > 100 µM
- TGI (OVCAR-5 ovarian): > 100 µM
- TGI (OVCAR-8 ovarian): > 100 µM
- TGI (PC-3 prostate): > 100 µM
- TGI (RPMI-8226 leukemia): > 100 µM
- TGI (SF-268 CNS): > 100 µM
- TGI (SF-295 CNS): > 100 µM
- TGI (SF-539 CNS): > 100 µM
- TGI (SK-MEL-28 melanoma): > 100 µM
- TGI (SK-MEL-5 melanoma): > 100 µM
- TGI (SK-OV-3 ovarian): > 100 µM
- TGI (SN12C renal): > 100 µM
- TGI (SNB-19 CNS): > 100 µM
- TGI (SNB-75 CNS): > 100 µM
- TGI (SR leukemia): > 100 µM
- TGI (SW-620 colon): > 100 µM
- TGI (T-47D breast): > 100 µM
- TGI (TK-10 renal): > 100 µM
- TGI (U251 CNS): > 100 µM
- TGI (UACC-257 melanoma): > 100 µM
- TGI (UO-31 renal): > 100 µM

SMILES: COc1ccc2nccc(/C=C/c3ccc(N(C)C)cc3)c2c1
- TGI (786-0 renal): > 10 µM
- TGI (A498 renal): > 10 µM
- TGI (A549 NSCLC): > 10 µM
- TGI (ACHN renal): > 10 µM
- TGI (BT-549 breast): > 10 µM
- TGI (CAKI-1 renal): > 10 µM
- TGI (CCRF-CEM leukemia): > 10 µM
- TGI (COLO 205 colon): > 10 µM
- TGI (DU-145 prostate): > 10 µM
- TGI (EKVX NSCLC): > 10 µM
- TGI (HCC-2998 colon): > 10 µM
- TGI (HCT-116 colon): > 10 µM
- TGI (HCT-15 colon): > 10 µM
- TGI (HL-60(TB) leukemia): > 10 µM
- TGI (HOP-62 NSCLC): > 10 µM
- TGI (HOP-92 NSCLC): > 10 µM
- TGI (HS 578T breast): > 10 µM
- TGI (HT29 colon): > 10 µM
- TGI (IGROV1 ovarian): > 10 µM
- TGI (K-562 leukemia): > 10 µM
- TGI (KM12 colon): > 10 µM
- TGI (LOX IMVI melanoma): > 10 µM
- TGI (M14 melanoma): > 10 µM
- TGI (MALME-3M melanoma): > 10 µM
- TGI (MCF7 breast): > 10 µM
- TGI (MDA-MB-231 breast): > 10 µM
- TGI (MDA-MB-435): 7.49 µM
- TGI (MDA-N): > 10 µM
- TGI (MOLT-4 leukemia): > 10 µM
- TGI (NCI-H226 lung): > 10 µM
- TGI (NCI-H23 lung): > 10 µM
- TGI (NCI-H460 lung): > 10 µM
- TGI (NCI-H522 lung): > 10 µM
- TGI (NCI/ADR-RES ovarian): > 10 µM
- TGI (OVCAR-3 ovarian): > 10 µM
- TGI (OVCAR-4 ovarian): > 10 µM
- TGI (OVCAR-5 ovarian): > 10 µM
- TGI (OVCAR-8 ovarian): > 10 µM
- TGI (PC-3 prostate): > 10 µM
- TGI (RPMI-8226 leukemia): > 10 µM
- TGI (RXF 393 renal): > 10 µM
- TGI (SF-268 CNS): > 10 µM
- TGI (SF-295 CNS): > 10 µM
- TGI (SF-539 CNS): > 10 µM
- TGI (SK-MEL-2 melanoma): > 10 µM
- TGI (SK-MEL-28 melanoma): > 10 µM
- TGI (SK-MEL-5 melanoma): > 10 µM
- TGI (SK-OV-3 ovarian): > 10 µM
- TGI (SN12C renal): > 10 µM
- TGI (SNB-19 CNS): > 10 µM
- TGI (SNB-75 CNS): > 10 µM
- TGI (SW-620 colon): > 10 µM
- TGI (T-47D breast): > 10 µM
- TGI (TK-10 renal): > 10 µM
- TGI (U251 CNS): > 10 µM
- TGI (UACC-257 melanoma): > 10 µM
- TGI (UACC-62 melanoma): > 10 µM
- TGI (UO-31 renal): > 10 µM
